Structures can show the parent of a compound that is named as a salt.

For series [1], the system named is SLC7A8 and PAT4. Nature of the series: Kyn consumption by activated CD8+ T cells with SLC7A8/PAT4 inhibition or knockdown (ELISA). Format: cell-based, mouse. Particulars: Kyn 200 μM, 48 h. On the procedure:
(3) Scramble shRNA or shRNA against SLC7A8 and PAT4 were delivered via retrovirus to activated CD8^+ T cells for 24 h, and then the transduced T cells were treated with Kyn (200 μM) for 48 h. Kyn levels in the supernatants were determined by ELISA and the Kyn consumption was calculated.
A general note: ELISA stands for enzyme-linked immunosorbent assay.

Series [2] has as its system PD-1. Nature of the series: AhR activity and PD-1 expression in CD8+ T cells with SLC7A8/PAT4 inhibition or knockdown. Format: cell-based, mouse. Particulars: for PD-1 upregulation: Kyn 200 μM, 48 h; for AhR activity: T cells treated with transporter inhibitor. As for the experimental part:
(4) The experimental steps were the same as those of step (3), except that the expression of PD-1 was analyzed by flow cytometry.

Series [3] concerns OVA-B16 TRCs. Nature of the series: OT-1 T cell cytotoxicity to OVA-B16 TRCs with SLC7A8/PAT4 inhibition or knockdown. Particulars: co-culture. Format: cell-based, mouse. As for the experimental part: (5) Activated OT-1 T cells were transfected with scramble shRNA, PAT4 shRNAs (Sh1 and Sh2) or SLC7A8 shRNAs (Sh1 and Sh2) for 72 h, and then co-cultured with OVA-B16 TRCs. TRC apoptosis was analyzed by flow cytometry.

Series [4] concerns PD-1. Nature of the series: Effect of SAR and BCH on PD-1 expression in mouse CD8+ T cells (flow cytometry). Format: cell-based. Particulars: 200 μM Kyn + 10 mM SAR or 100 μM BCH, 48 h. On the procedure:
Mouse splenic CD8^+ T cells were obtained by magnetic bead sorting, and seeded into a U-shaped bottom 96-well plate (100000 cells/well) while anti-CD3/CD28 magnetic beads were added to activate T cells. The culture medium was RPMI-1640 added with 10 ng/mL mouse IL-2 and […] β-mercaptoethanol. Cells were grouped and treated with drugs as follows.
(§1) Control group 1 (PBS): culture medium+PBS;
(§2) Experimental group 2 (Kyn): culture medium+200 μM Kyn;
Experimental group 3 (Kyn+SAR): culture medium+200 μM Kyn+10 mM SAR;
Experimental group 4 (Kyn+BCH): culture medium+200 μM Kyn+100 μM BCH;
(§3) The expression level of PD-1 in CD8^+ T cells of each group was determined by flow cytometry after 48 h.
For orientation: A flow cytometer gives signals particle by particle.

For series [5], the system named is OVA-B16 cells. Nature of the series: Effect of SAR and BCH on killing of OVA-B16 cells by OT-1 CD8+ T cells (apoptosis, flow cytometry). It is filed as cell-based, mouse. Particulars: T cells pretreated 24 h with 10 mM SAR or 100 μM BCH; co-culture 1:10, 4 hours. As for the experimental part:
Splenic CD8^+ T cells of OT-1 mouse were obtained by magnetic bead sorting and seeded into a U-shaped bottom 96-well plate (100000 cells/well). Cells were grouped and treated with drugs as follows.
as §1
Experimental group 2 (SAR): culture medium+10 mM SAR;
Experimental group 3 (BCH): culture medium+100 μM BCH;
After T cells were pretreated for 24 hours, 3D-cultured OVA-B16 cells were co-cultured with OT-1 CD8^+ T cells at a ratio of 1:10, and the apoptosis of OVA-B16 cells was determined by flow cytometry after 4 hours.

The test system of series [6] is PD-1. Nature of the series: Effect of SAR and BCH on PD-1 expression in human peripheral blood CD8+ T cells (flow cytometry). It is filed as cell-based. Particulars: breast cancer patients, 200 μM Kyn + 10 mM SAR or 100 μM BCH, 48 h. On the procedure:
Mononuclear cells were isolated and obtained from the peripheral whole blood of breast cancer patients by using Ficoll. CD8^+ T cells were sorted by magnetic beads, and seeded into a U-shaped bottom 96-well plate (100000 cells/well) while anti-CD3/CD28 magnetic beads were added to activate T cells. The culture medium was RPMI-1640 added with 10 ng/mL human IL-2. Cells were grouped and treated with drugs as follows.
as §1, §2
Experimental group 3 (Kyn+SAR): culture medium+200 μM Kyn+10 mM SAR; Experimental group 4 (Kyn+BCH): culture medium+200 μM Kyn+100 μM BCH;
as §3

The test system of series [7] is PD-1. Nature of the series: PD-1 expression in anti-CD3/CD28 bead-activated CD8+ T cells treated with Kyn or other tryptophan metabolites (flow cytometry). It is filed as cell-based, mouse. To be noted: other tryptophan metabolites 500 μM, 24 h. As for the experimental part:
(4) The isolated splenic CD8^+ T cells were incubated with anti-CD3/CD28 beads in the presence of different concentrations of Kyn. PD-1 expression was determined by flow cytometry.
(5) The experimental steps were the same as those of step (4), except that CD8^+ T cells were treated with 200 μM Kyn for different time periods as shown in FIG. 2E.
(6) Anti-CD3/CD28 bead-activated CTLs were treated with PBS, 200 μM Kyn or other metabolites (500 μM) from the tryptophan pathway (melatonin, kynurinic acid and indoxyle sulphate). After 24 h, PD-1 expression was determined by flow cytometry.

Series [8] deals with PD-1. Nature of the series: PD-1 expression in activated CD8+ T cells treated with TCDD (qPCR, flow cytometry). Particulars: 48 h. It is filed as cell-based, mouse. On the procedure:
(7) Activated CD8^+ T cells were treated with TCDD for 48 h and then PD-1 expression was analyzed by qPCR (left) and flow cytometry (right). The data represented mean±SEM.
(In qPCR the cycle at which signal appears reflects the starting amount.)

Series [9] relates to AhR. Nature of the series: PD-1 expression in activated CD8+ T cells treated with Kyn plus AhR inhibitor (flow cytometry). Particulars: Kyn plus inhibitor (DMF 10 or 20 μM), 72 h. Format: cell-based, mouse. As for the experimental part: (4) CD8^+ T cells activated by anti-CD3/CD28 beads were treated with PBS, Kyn or Kyn/DMF (10 or 20 μM) for 72 h. The expression of PD-1 was determined by flow cytometry.

In series [10] the test system is PAT4 and SLC7A8. Nature of the series: PAT4 and SLC7A8 expression in activated CD8+ T cells (real-time PCR, immunostaining). It is filed as cell-based, mouse. Particulars: activated CD8+ T cells, Kyn/CH-223191 (10 μM) or Kyn/DMF (20 μM), 48 h. On the procedure: (2) Activated CD8^+ T cells were treated with PBS or Kyn (200 μM) for 24 h. The expression of PAT4 and SLC7A8 was determined by real-time PCR (left) and immunostaining (right). Bar, […].
(6) The mRNA expression of PAT4 and SLC7A8 was determined in activated CD8^+ T cells treated with PBS, Kyn, Kyn/CH-223191 (10 μM) or Kyn/DMF (20 μM) for 48 h.

For series [11], the system named is PD-1. Nature of the series: PD-1 expression in human CD8+ T cells treated with Kyn and AhR inhibitors (flow cytometry). It is filed as cell-based. To be noted: human CD8+ T cells, Kyn plus inhibitor (DMF 20 μM), 48 h. On the procedure: (4) CD8^+ T cells isolated from PBMCs of patients with breast cancer or lung cancer were activated by anti-CD3/CD28 beads and treated with PBS, Kyn (200 μM) or Kyn/DMF (20 μM) for 48 h. The expression of PD-1 was determined by flow cytometry.
(5) CD8^+ T cells isolated from patients with breast cancer or lung cancer were treated with DMF (20 μM) for 48 h. PD-1 expression was determined by flow cytometry (n=6).

The subject of series [12] is PAT4 and SLC7A8. Nature of the series: PAT4 and SLC7A8 expression in CD8+ T cells from breast cancer patients (real-time PCR). Format: cell-based, human. Particulars: Kyn/DMF (20 μM) or Kyn/CH (50 μM), 48 h. On the procedure: (8) CD8^+ T cells from breast cancer patients were treated with PBS, Kyn ([…] (20 μM) or Kyn/CH (50 μM) for 48 h. The expression of PAT4 and SLC7A8 was determined by real-time PCR. The determination results were as shown in FIG. 7I.

The target in series [13] is T1, tryptophan transporter SLC1A5 (Mus musculus, UniProt P51912).
T1 construct: endogenous in cells; host or cells: mouse OVA-B16 melanoma cells
T1 sequence (P51912 1-553): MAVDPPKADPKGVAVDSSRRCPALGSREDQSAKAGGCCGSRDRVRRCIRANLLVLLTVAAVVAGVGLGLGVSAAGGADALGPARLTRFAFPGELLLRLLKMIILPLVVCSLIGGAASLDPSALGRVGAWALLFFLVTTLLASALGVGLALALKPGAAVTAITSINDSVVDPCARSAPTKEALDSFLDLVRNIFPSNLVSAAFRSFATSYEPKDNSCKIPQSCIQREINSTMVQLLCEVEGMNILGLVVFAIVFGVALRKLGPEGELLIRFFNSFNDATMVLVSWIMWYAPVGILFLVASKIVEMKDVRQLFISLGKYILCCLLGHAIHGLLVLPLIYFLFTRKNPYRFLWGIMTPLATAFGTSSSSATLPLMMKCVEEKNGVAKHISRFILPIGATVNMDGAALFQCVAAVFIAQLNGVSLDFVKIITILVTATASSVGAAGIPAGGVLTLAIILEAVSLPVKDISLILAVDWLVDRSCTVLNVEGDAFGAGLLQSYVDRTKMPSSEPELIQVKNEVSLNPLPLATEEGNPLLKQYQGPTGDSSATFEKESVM
Nature of the series: Effect of GPNA on the uptake of tryptophan by tumor cells (ELISA of lysates). Format: cell-based. To be noted: OVA-B16 cells, 50 ng/mL IFN-γ, 24 h. On the procedure:
Mouse OVA-B16 cells were cultured in RPMI-1640 culture medium in vitro and were group and treated as follows.
as §1
Control group 2 (GPNA): culture medium+10 μM GPNA;
Experimental group 3 (IFN-γ): culture medium+50 ng/mL IFN-γ;
Experimental group 4 (IFN-γ+GPNA): culture medium+50 ng/mL IFN-γ+10 μM GPNA;
The cells in each group were collected after 24 h and ultrasonically broken, the concentrations of tryptophan in the lysates were determined by ELISA, and BCA protein assay was carried out at the same time.

Consider `NC1(C(=O)O)CC2CCC1C2` (centres unmarked) [BCH, 2-amino-2-norbornanecarboxylic acid], for which, in [1], the “entry of Kyn into T cells” value is “blocked”. Moreover, the PD-1 upregulation result in [2] is on record as “abolished”. In [2], the AhR activity result is recorded as “inhibited”. Besides, in series [3], the “OT-1 T cell cytotoxicity to OVA-B16 TRCs” value is “enhanced”. Further, the “expression of PD-1 in CD8+ T cells” value in [4] and in series [6] was “significantly reducing” throughout. The “apoptosis ratio of OVA-B16 tumor cells” value in series [5] is on record as “increased significantly”.

For `O=C(O)c1cc(=O)c2ccccc2[nH]1` [kynurenic acid], the PD-1 expression result in [7] is reported as “none of them was able to alter PD-1 expression”.

On to `Clc1cc2c(cc1Cl)Oc1cc(Cl)c(Cl)cc1O2` [TCDD], for which the PD-1 expression result in series [8] is on record as “upregulated”.

Regarding `CNCC(=O)O` [SAR, sarcosine], the “entry of Kyn into T cells” value in series [1] is given as “blocked”. Besides, in [2], the PD-1 upregulation entry was “abolished” and the AhR activity entry is “inhibited”. Further, in series [3], the “OT-1 T cell cytotoxicity to OVA-B16 TRCs” value is “enhanced”. In addition, in series [4], the “expression of PD-1 in CD8+ T cells” value is “significantly reducing”. For the same molecule, in series [5], the “apoptosis ratio of OVA-B16 tumor cells” value was “increased significantly”. In addition, in series [6], the “expression of PD-1 in CD8+ T cells” value is “significantly reducing”.

In the case of `O=S(=O)(O)Oc1c[nH]c2ccccc12` [indoxyl sulfate], the PD-1 expression entry in [7] is listed as “none of them was able to alter PD-1 expression”.

`Cc1ccccc1N=Nc1ccc(NC(=O)c2ccnn2C)c(C)c1` [CH-223191]: in [9], the “Kyn-dependent upsurge of PD-1” value was “thwarted”. Further, the “Kyn-induced upregulation of SLC7A8 and PAT4” value in series [10] is “effectively inhibiting”; in [12] it was “blocked”. For the same molecule, in series [11], the “Kyn-induced PD-1 upregulation” value was “inhibited”.

Take `COc1ccc2[nH]cc(CCNC(C)=O)c2c1` [melatonin]: the PD-1 expression result in [7] is “none of them was able to alter PD-1 expression”.

B1: IFN-γ: recombinant IFN-γ purchased from R & D Systems (protein, UniProt P01579 24-161, looked up)
Interferon gamma: QDPYVKEAENLKKYFNAGHSDVADNGTLFLGILKNWKEESDRKIMQSQIVSFYFKLFKNFKDDQSIQKSVETIKEDMNVKFFNSNKKKRDDFEKLTNYSVTDLNVQRKAIHELIQVMAELSPAAKTGKRKRSQMLFRG
With B1, in [13], the “uptake of tryptophan by tumor cells” value is “significantly increasing”.

Values taken from patent US20210154162A1, “DRUG AND PHARMACEUTICAL COMPOSITION CONTAINING TRANSPORT PROTEIN INHIBITOR, AND USE” (Institute of Basic Medical Sciences Chinese Academy of …, priority 2018, published 2021).
